Source: US20110077198A1, “COMPOSITIONS AND METHODS FOR INHIBITING THE ACTIVATION OF DSRNA-DEPENDENT PROTEIN KINASE AND TUMOR GROWTH INHIBITION” (priority 2007, published 2011)

Assays:
MAC16 cells = assay: Cell growth assay, MAC16 cells in vitro; assay type: cell-based, mouse
MAC13 cells = assay: Cell growth assay, MAC13 cells in vitro; assay type: cell-based, mouse; settings: concentration up to 1000 nM (FIG. 2)
Method: The MAC16 and MAC13 tumors were propagated in vitro in RPMI 1640 medium containing 10% FCS at 37° C., under an atmosphere of 5% CO2 in air. For cell growth assays, cells were seeded at either 0.5×10^5 cells per well (MAC13) or 1×10^5 cells per well (MAC16) in 24 well multi-well dishes and allowed to accumulate for 24 h prior to drug addition. Cell number was determined three days later, whilst the cells were in exponential growth.

PKR [1] = target: T1, PKR (Mus musculus, UniProt Q03963); assay: Western blot of phospho and total PKR in MAC13 cells; assay type: cell-based
T1 construct: endogenous in cells; host or cells: MAC16 and MAC13 murine colon adenocarcinoma cells in culture
T1 sequence (Q03963 1-515): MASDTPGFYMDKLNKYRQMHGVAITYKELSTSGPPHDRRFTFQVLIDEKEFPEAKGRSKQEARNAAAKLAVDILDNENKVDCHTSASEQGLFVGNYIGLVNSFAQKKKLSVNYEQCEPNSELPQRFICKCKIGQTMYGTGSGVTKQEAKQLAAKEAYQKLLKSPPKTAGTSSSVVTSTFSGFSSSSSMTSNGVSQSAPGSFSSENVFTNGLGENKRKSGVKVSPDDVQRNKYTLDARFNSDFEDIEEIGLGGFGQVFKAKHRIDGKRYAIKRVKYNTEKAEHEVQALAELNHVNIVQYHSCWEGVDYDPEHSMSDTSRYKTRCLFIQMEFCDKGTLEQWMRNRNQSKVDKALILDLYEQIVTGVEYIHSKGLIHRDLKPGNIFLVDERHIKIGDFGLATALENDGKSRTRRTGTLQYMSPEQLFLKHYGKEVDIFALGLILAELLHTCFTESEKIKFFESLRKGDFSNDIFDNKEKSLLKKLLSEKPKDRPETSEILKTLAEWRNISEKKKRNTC
Method: (§1) Samples (approximately 10 mg) of tumor were homogenised in 500 μl of PhosphoSafe™ Extraction Reagent and centrifuged at 15,000 g for 15 min at 4° C. Portions of cytosolic protein (10 μg) were resolved on 10% sodium dodecyl sulphate/polyacrylamide gels (SDS/PAGE; 6% for eIF2α). The resolved proteins were transferred onto 0.45 μm nitrocellulose membranes, which had been blocked with 5% Marvel in Tris-buffered saline, pH 7.5, at 4° C. overnight. Membranes were then washed for 15 min in 0.5% Tween-buffered saline, or TBS-Tween, prior to the addition of primary antibodies. The primary antibodies were used at a dilution of 1:1000, except for phospho eIF2α, which was used at 1:500. The primary antibodies were washed off the membranes for 15 min, with buffer changes every 5 min, using 0.1% TBS-Tween. The secondary antibodies were used at a dilution of 1:1000, and were washed off after 45 min. Development was by ECL, and films were developed for 3-6 min. Blots were scanned by a densitometer to quantify differences.

eIF2α = assay: Western blot of phospho and total eIF2α in MAC16 tumor from treated mice; assay type: in vivo, mouse; settings: mice bearing MAC16 tumor
Text: (§2) Both the MAC16 and MAC13 tumors were passaged in vivo in NMRI mice by transplanting fragments subcutaneously (s.c.) into the flank, as described in Bibby et al., J. Natl. Cancer Inst., 78(3):539-546, 1987. To maintain cachexia, the MAC16 tumor for passage was selected from donor animals with established weight loss, and treatment was initiated when the average weight loss was 5%. Animals were randomized into groups of six to receive solvent (DMSO (dimethylsulfoxide): PBS (phosphate-buffered saline); 1:20) or the PKR inhibitor at 1 and 5 mg/kg administered daily by s.c. injection. Animals were terminated by cervical dislocation when the body weight loss reached 20%. All animal experiments followed a strict protocol approved by the British Home Office, and the ethical guidelines that were followed meet the standards required by the UKCCR guidelines (Workman, P. et al., Br. J. Cancer, 77:1-10, 1998).
(§3) Samples (approximately 10 mg) of tumor were homogenised in 500 μl of PhosphoSafe™ Extraction Reagent and centrifuged at 15,000 g for 15 min at 4° C. Portions of cytosolic protein (10 μg) were resolved on 10% sodium dodecyl sulphate/polyacrylamide gels (SDS/PAGE; 6% for eIF2α). […] Blots were scanned by a densitometer to quantify differences.

PKR [2] = target: T1, PKR; assay: Western blot of phospho and total PKR in MAC16 cells; assay type: cell-based
Method: as §1

[3] = Toxicity in mice treated with the PKR inhibitor; assay type: in vivo, mouse; settings: inhibition of autophosphorylation of PKR in mice
Text: as §2

NF-κB = assay: EMSA of nuclear NF-κB in MAC16 tumor from treated mice; assay type: in vivo, mouse; settings: mice bearing MAC16 tumor, 5 mg/kg for 4 days (FIG. 7B)
Text: as §2
DNA-binding proteins were isolated from tumor samples by hypotonic lysis, followed by high salt extraction of nuclei according to the method of Andrews and Faller (Nucleic Acids Res., 19(9):2499, 1991). EMSA was carried out using a Panomics EMSA “gel shift” kit, according to the manufacturer's instructions

MAC16 tumor = settings: cited from earlier work; for tumor growth in mice bearing the MAC16 tumor: literature reports; for loss of body weight of mice bearing MAC-16 tumor: Eley et al., Biochem J. 2007
20S proteasome = assay: Western blot of 20S proteasome α-subunits in MAC16 cells; assay type: cell-based, mouse; settings: MAC16 cells (FIG. 5C)
Method: as §1

PKR [4] = target: T1, PKR; assay: Western blot of phospho and total PKR in MAC16 tumor from treated mice; assay type: in vivo; settings: mice bearing MAC16 tumor
Text: as §2, §3

[5] = system: human pancreatic cancer cells; settings: in vitro, literature reports; cited from earlier work

O=c1[nH]cc(F)c(=O)[nH]1 [5FU, 5-fluorouracil]
growth of MAC16 cells, agent alone (MAC16 cells; 5FU alone at concentrations between 1 and 10 μM (FIG. 8)): significant inhibition

O=C1Nc2ccc3ncsc3c2/C1=C/c1c[nH]cn1 [PKR inhibitor, 8-[1-(1H-imidazol-4-yl)meth-(Z)-ylidene]-6,8-dihydro-thiazol[5,4-e]indol-7-one]
effect on growth of the MAC13 tumor in vitro (MAC13 cells): no effect | effect on total PKR in the cell (PKR [1]): In neither cell line was there an effect | effect on autophosphorylation of PKR (PKR [1]; low levels of autophosphorylation (FIG. 5B)): no effect | total level of eIF2α in MAC16 tumor (eIF2α; 1 or 5 mg/kg daily s.c.): without an effect | increased phosphorylation of eIF2α in MAC16 tumor (eIF2α; 1 or 5 mg/kg daily s.c. (FIG. 4B)): complete attenuation | effect on total PKR in the cell (PKR [2]; MAC16 cells): In neither cell line was there an effect | concentration maximally effective in inhibiting PKR (PKR [2]; increasing concentrations have a reduced inhibitory effect): 200 nM | toxicity in mice [3]: did not produce toxicity | constitutive activation of NF-κB in the tumor (NF-κB): attenuated | concentration of maximum inhibition of cell growth (MAC16 cells; MAC16 in vitro, cell number after three days, higher concentrations less effective (FIG. 2)): 200 nM | effect on 5FU-induced inhibition of growth of MAC16 cells (MAC16 cells; PKR inhibitor at 100 or 200 nM combined with 5FU 1-10 μM (FIG. 8)): significantly potentiated | effect on gemcitabine-induced inhibition of growth of MAC16 cells (MAC16 cells; PKR inhibitor at 100 or 200 nM combined with gemcitabine (FIG. 8)): potentiated | muscle atrophy in mice bearing the MAC16 tumor (MAC16 tumor; Eley et al, 2007): attenuated | tumor growth in mice bearing the MAC16 tumor (MAC16 tumor): inhibited | expression of the 20S proteasome (20S proteasome): attenuated | total level of PKR in MAC16 tumor (PKR [4]; 1 or 5 mg/kg daily s.c.): without an effect | increased phosphorylation of PKR in MAC16 tumor (PKR [4]; 1 or 5 mg/kg daily s.c. (FIG. 4A)): complete attenuation

CC(C)C[C@H](NC(=O)[C@H](Cc1ccccc1)NC(=O)c1cnccn1)B(O)O [PS-341]
growth / proliferation of human pancreatic cancer cells [5]: block proliferation

COc1cc(/C=C/C(=O)CC(=O)/C=C/c2ccc(O)c(OC)c2)ccc1O [curcumin]
growth / proliferation of human pancreatic cancer cells [5]: inhibits

Nc1ccn([C@@H]2O[C@H](CO)[C@@H](O)C2(F)F)c(=O)n1 [gemcitabine, Gemcitabine]
growth of MAC16 cells, agent alone (MAC16 cells; gemcitabine alone, 3.8-38 μM (FIG. 8)): inhibition of growth

CC(C)C[C@H](N)C(=O)O [leucine]
loss of body weight of mice bearing MAC-16 tumor (MAC16 tumor): significantly suppress

Oc1ccc(C=Cc2cc(O)cc(O)c2)cc1 [resveratrol]
tumor growth in mice bearing the MAC16 tumor (MAC16 tumor): inhibited

CC(C)[C@H](N)C(=O)O [valine]
loss of body weight of mice bearing MAC-16 tumor (MAC16 tumor): significantly suppress
